Data: BindingDB's records for doi:10.1016/0006-2952(92)90616-q (National Institutes of Diabetes and Digestive and Kidney …, 1992)

Columns and labels:
[1] = molecular target: T1, Adenosine receptor A1 (Rattus norvegicus, UniProt P25099)
T1 sequence (P25099 whole entry): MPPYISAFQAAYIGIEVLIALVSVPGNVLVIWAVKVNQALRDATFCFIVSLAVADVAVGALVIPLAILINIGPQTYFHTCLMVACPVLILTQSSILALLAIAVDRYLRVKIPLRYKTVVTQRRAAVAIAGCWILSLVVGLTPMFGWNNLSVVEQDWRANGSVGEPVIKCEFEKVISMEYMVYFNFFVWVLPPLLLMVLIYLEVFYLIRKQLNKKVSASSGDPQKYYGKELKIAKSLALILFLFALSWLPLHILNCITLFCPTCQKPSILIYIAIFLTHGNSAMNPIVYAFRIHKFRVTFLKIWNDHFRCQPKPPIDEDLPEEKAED

[2] = molecular target: Adenosine receptor A2a (Rattus norvegicus, UniProt P30543)
Adenosine receptor A2a, sequence (P30543 whole entry): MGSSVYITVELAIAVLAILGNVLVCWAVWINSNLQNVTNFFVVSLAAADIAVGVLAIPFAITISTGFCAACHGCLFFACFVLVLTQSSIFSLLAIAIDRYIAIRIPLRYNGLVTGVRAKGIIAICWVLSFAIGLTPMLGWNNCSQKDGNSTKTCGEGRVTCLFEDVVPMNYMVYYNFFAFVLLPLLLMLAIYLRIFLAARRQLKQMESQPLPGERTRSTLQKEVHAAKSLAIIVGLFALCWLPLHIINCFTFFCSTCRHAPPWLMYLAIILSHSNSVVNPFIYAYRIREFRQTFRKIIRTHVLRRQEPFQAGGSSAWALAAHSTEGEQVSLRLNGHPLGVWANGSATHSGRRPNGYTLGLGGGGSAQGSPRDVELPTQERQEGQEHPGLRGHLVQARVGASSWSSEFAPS

SMILES | Ki [1] [nM] | Ki [2] [nM]
CSC[C@H]1O[C@@H](n2cnc3c(NC4CCCC4)nc(F)nc32)[C@H](O)[C@@H]1O [2-Fluoro-5'-Methylthio Adenosine] | 84 | 950
Nc1nc(F)nc2c1ncn2[C@@H]1O[C@H](CO)[C@@H](O)[C@H]1O [2-FluoroAdo] | 5.9 | 28
CSC[C@H]1O[C@@H](n2cnc3c(NC4CCCC4)ncnc32)[C@H](O)[C@@H]1O [5'-Methylthio Adenosine] | 243 | 1180
O[C@@H]1[C@H](O)[C@@H](Cl)O[C@H]1n1cnc2c(NC3CCCC3)ncnc21 [N6-Cyclopentyl-5'chloro Adenosine] | 0.63 | 1360
Nc1ncnc2c1ncn2[C@@H]1O[C@H](Cl)[C@@H](O)[C@H]1O [5'-Chloro Adenosine] | 20 | 140
CCNC(=O)C1OC(n2cnc3c(NC4CCCCC4)ncnc32)C(O)C1O (stereo not drawn) [N6-CyclohexylNECA] | 0.43 | 170
OC[C@H]1O[C@@H](n2cnc3c(NC4CCCC4)ncnc32)[C@H](O)[C@@H]1O | – | 510
